Results reported in patent EP0998939A1, “Chalcone plant extracts for use in therapy” (THE SCHOOL OF PHARMACY, UNIVERSITY OF LONDON, priority 1998, dated 2000).
≈ marks a conversion by molar mass, not a printed value.

Experiments:
[1] = test system: Female CD1 mice; experiment: Topical chemical erythema: inhibition of TPA induced erythema on the mouse ear; assay type: in vivo; conditions: for ED50 (dose required to inhibit erythema in at least 50% of the animals): applied to the right ear in 5µl, 20 minutes prior to TPA (0.1µg/5µl); for inhibition of chemically induced (TPA) erythema on the mouse ear, result in words: comparison among extracts or among the three chalcones
Experimental: Ref. Williamson E.M. and Evans F. (1981), Inhibition of erythema induced by proinflammatory esters of 12-deoxyphorbol. Acta Pharmacol. Toxicol.,48, 47-52
Female CD1 mice, weighing approximately 20g were used. • 2. Test plant extracts as produced in Example 1 were applied externally to the right ear of each mouse, at predetermined concentrations in 5µl quantities, 20 minutes prior to the application of the irritant compound 12-O-tetradecanoylphorbal-13-acetate (TPA)(0.1µg/5µl). • 3. A […] response was indicated by redness and inflammation of the ear. • 4. Observations were recorded at 2,3,4,6,7, and 24 hours after the application of TPA. Maximum inflammation caused by TPA alone occurs at 6 hours after the application of TPA.
Erythema of the mouse ear is the simplest experiment to perform as mice have translucent ears in which reddening is easily visible. Quantification is subjective, however the erythema can be described as pronounced, slight or absent. • Isoliquiritigenin ED50 (dose required to inhibit erythema in at least 50% of the animals) 20-50,µg • Licochalcone B ED50 5-10µg • Echinatin ED50 5-10µg

[2] = test system: Blood platelets; experiment: Inhibition of blood platelet aggregation (TPA or ADP induced) in platelet rich plasma; assay type: cell-based, human; conditions: for Percentage Inhibition of ADP Induced Aggregation: ADP 6.4 µg; for Percentage Inhibition of TPA Induced Aggregation: TPA 0.5µg
Experimental: Blood platelets release inflammatory mediators in response to an external stimulus, which affect the proliferation of the cells, which is an important part of the disease psoriasis. • 1. Male human blood was collected via venipucture of the forearm directly in to anticoagulant buffer, from healthy donors who had denied any medication for two weeks, and centrifuged at 1000rpm for 20 minutes at room temperature. • 2. The supernatant was employed as platelet rich plasma (PRP). Platelet poor plasma (PPP) was obtained by centrifuging 1ml of PRP at 11,000 rpm for 10 minutes. • 3. Inhibition of platelet aggregation was tested by adding 2.5µl of a known concentration (containing 10µg or 50µg) of the test compound to a 500µl sample ofPRP for one minute. An aggregation agent was then added as a solution to the sample in a 2.5µl quantity (containing TPA 0.5,µg or ADP 6.4 µg). Aggregation was measured using a dual channel aggregometer . • 4. Aggregation was taken as the % change in light transmission compared to the maximum change produced by TPA or ADP plus the control solution. PRP was used as a standard for zero light transmission and PP for 100% light transmission.

[3] = test system: swiss 3T3 mouse fibroblast cells; experiment: Cell culture 3[H] thymidine assay, Example 6.1 cytotoxicity testing (normal cell growth); assay type: cell-based; conditions: for Percentage Inhibition of 3T3 Swiss Fibroblast Growth, Example 6.1: cytotoxicity, no TPA
Experimental: (§1) Cells used were swiss 3T3 mouse fibroblast cells • 1. 6 x 24 well plates were required for each experiment. • 2. Cells were removed from the standard tissue culture flask using a 1% solution of EDTA and resuspended in 10 ml of media and pipetted off into a falcon tube. • 3. The cells were then spun for 5 minutes at about 2,000rpm. • 4. The existing media was removed, and the cells again resuspended in 10ml of 10% foetal calf serum (FCS) and vortexed. • 5. The 10ml of suspension was then added to 140ml of media and mixed in a sterile jar. 1ml of the media cell suspension was then placed into each well and the plates incubated until confluent, three days .
(§2) • 1. [PCl]Cells were dosed with the test compounds (as specified below) 2 days prior to the addition of 3 [H]thymidine. The cells could only be dosed with a 0.5% solution, 5µl test solution in 1ml cellsuspension i.e. 5µl in 1ml, (TPA - 0.5µM). • 2. 0.5µl of 3[H] thymidine was added per well, therefore 72µl was added to 144µl of media (1%F.C.S.) to dose the corresponding six plates. • 3. 100µl of the media was taken to measure the measure the radioactive dose […], and added to 4ml of scintillation fluid. • 4. The radioactive media was then transferred to sterile specimen tubes and dosed with the test compounds before adding to the cells. • 5. After four hours ofbeing pulsed with radiolabelled thymidine (0.5µCi/ml) the media was removed and washed down the sink. • 6. The cells were washed twice with ice cold phosphate buffered saline (PBS), 0.5ml per well, and incubated for 30 min using ice cold 5% trichloroacetic acid (TCA) ( 1ml) per well at room temperature. • 8. The TCA was then removed and another 1ml of 5% TCA was added for 5 minutes. After the TCA was removed and 0.3NaOH and 0.1% sodium dodecyl sulphate added to each well for 30 minutes (1ml/well). • 9. The contents of each well was added to scintillation vials containing 4ml of scintillation fluid and each sample counted for four minutes using a scintillation counter. Three different assays were carried out using this protocol; • 6.1. Cytotoxicity testing of the compounds. After 48 hours of incubation and the cells were confluent a predetermined quantity of the test compounds was added to the cells. • 6.2. Inhibition of TPA induced proliferation. After 48 hours a preditermined quantity concentration of the test compounds was added to the cells as well as 0.5um of TPA. […] Inhibition of TPA induced proliferation. After 48 hours a predetermined quantity concentration of the test compounds was added to the cells for 24 hours, at 72 hours the media was changed again to contain both test compound and 0.5µM of the TPA. The objective of this experiment was to observe whether the prior incubation with the test compound had any effect on the TPA induced proliferation of the cells.

[4] = test system: swiss 3T3 mouse fibroblast cells; experiment: Cell culture 3[H] thymidine assay, Example 6.2 inhibition of TPA induced proliferation (compound added together with TPA); assay type: cell-based; conditions: with 0.5µM TPA
Experimental: as §1, §2

[5] = test system: swiss 3T3 mouse fibroblast cells; experiment: Cell culture 3[H] thymidine assay, Example 6.3 inhibition of TPA induced proliferation (24 hours prior incubation with compound); assay type: cell-based; conditions: compound 24 hours before compound + 0.5µM TPA
Experimental: as §1, §2

[6] = test system: male Wistar rats; experiment: UV-B induced erythema (dermatitis) in rat, epidermal thickness and number of epidermal cell layers; assay type: in vivo; conditions: five days; for No. of cells (epidermal proliferation as compared to the control, no treatment) / Thickness (epidermal thickening as compared to the control, no treatment): control = 100
Experimental: Rat UV-B induced dermatitis is characterised by a brownish red lesion with scab formation. Histologically, microvascular dilation, intraepidermal accumulation ofleukocytes and hyperproliferation of epidermal cells are all very similar to the symptoms of psoriasis in man (Nakaguma,H., Int. J.ofExp.Path, 76:65-73, 1995) • 1. Hair on the dorsal skin of male Wistar rats (180g) was clipped and shaved, whilst the rats were under anaesthesia, 24 hours prior to the experiment. • 2. The rats were covered by a black plastic sheeting, with two rectangular holes (about 1cm^2) cut out, thus allowing two exposure sites on the dorsal skin whilst protecting the rest of the animal. • 3. The rats were then exposed to UV-B light (302nm) at a distance of 10cm for six minutes and thirty seconds. The total W-B exposure was 2.4J/cm^2 as measured using a UV-X radiometer. • 4. The test compound was then placed onto one of the exposed areas and an unexposed area at a concentration of 100µg/5µl, in a suitable vehicle solution. • 5. Application of the test compound was repeated for five days. • 6. Histological post-mortem sections were taken on the fifth day, and stained using haematoxylin and eosin. The number ofepidermal cell layers and the epidermal thickness was counted and measured at random. Five animals were used per test group.

[7] = test system: human polymorphonuclear neutrophils; conditions: properties associated with inflammatory processes; cited from earlier work
[8] = Conc. 10µg test compound in 500µl PRP
[9] = Conc. 50µg test compound in 500µl PRP
[10] = Active Compound Only, unexposed area, 100µg/5µl
[11] = UV Exposure + Active Compound versus UV Exposure, 100µg/5µl
[12] = UV Exposure + Active Compound, 100µg/5µl topical

Structure (SMILES)	ED50 (dose required to inhibit erythema in at least 50% of the animals) [1]	inhibition of chemically induced (TPA) erythema on the mouse ear, result in words [1]	Percentage Inhibition of ADP Induced Aggregation [2, 9]	Percentage Inhibition of TPA Induced Aggregation [2, 9]	Percentage Inhibition of 3T3 Swiss Fibroblast Growth, Example 6.1 ([3]; Concentration 1 µg)	Percentage Inhibition of 3T3 Swiss Fibroblast Growth, Example 6.1 ([3]; Concentration 10 µg)	Percentage Inhibition of 3T3 Swiss Fibroblast Growth, Example 6.1 ([3]; Concentration 20 µg)	Percentage Inhibition of 3T3 Swiss Fibroblast Growth, Example 6.2 ([4]; Concentration 1 µg)	Percentage Inhibition of 3T3 Swiss Fibroblast Growth, Example 6.2 ([4]; Concentration 10 µg)	Percentage Inhibition of 3T3 Swiss Fibroblast Growth, Example 6.2 ([4]; Concentration 20 µg)	Percentage Inhibition of 3T3 Swiss Fibroblast Growth, Example 6.3 ([5]; Concentration 1 µg)	Percentage Inhibition of 3T3 Swiss Fibroblast Growth, Example 6.3 ([5]; Concentration 10 µg)	Percentage Inhibition of 3T3 Swiss Fibroblast Growth, Example 6.3 ([5]; Concentration 20 µg)	also measured
COc1cc(O)ccc1/C=C/C(=O)c1ccc(O)cc1 [Echinatin, echinatin]	5 to 10 µg	most effective	14%	6%	85%	94%	99%	42%	98%	99%	65%	96%	96%	Percentage Inhibition of ADP Induced Aggregation [2, 8]: 13%; Percentage Inhibition of 3T3 Swiss Fibroblast Growth, Example 6.1 ([3]; Concentration 1 µg, listed as echinatin): up to 82%; EC50 ([3]; Mus musculus, normal cell growth of 3T3 cells, exact value not established): 0.1 to 1 µg/mL (≈ 0.37 to 3.7 µM)
COc1c(/C=C/C(=O)c2ccc(O)cc2)ccc(O)c1O [Licochalcone B, licochalcone B]	5 to 10 µg	most effective	15%	13%	41%	55%	86%	31%	32%	73%	22%	69%	85%	Percentage Inhibition of TPA Induced Aggregation [2, 8]: 4%; No. of cells (epidermal proliferation as compared to the control, no treatment) [6, 10]: 103%; Thickness (epidermal thickening as compared to the control, no treatment) [6, 10]: 96%; Percentage inhibition of epidermal proliferation (No. of cells, in brackets) [6, 11]: (83) %; Percentage inhibition of epidermal thickening (in brackets) [6, 11]: (75) %; No. of cells (epidermal proliferation as compared to the control, no treatment) [6, 12]: 129%; Thickness (epidermal thickening as compared to the control, no treatment) [6, 12]: 135%; Percentage Inhibition of 3T3 Swiss Fibroblast Growth, Example 6.1 ([3]; Concentration 0.01 µg): 16%; Percentage Inhibition of 3T3 Swiss Fibroblast Growth, Example 6.1 ([3]; Concentration 0.1 µg): 13%; Percentage Inhibition of 3T3 Swiss Fibroblast Growth, Example 6.2 ([4]; Concentration 0.01 µg): +26%; Percentage Inhibition of 3T3 Swiss Fibroblast Growth, Example 6.2 ([4]; Concentration 0.1 µg): 17%; Percentage Inhibition of 3T3 Swiss Fibroblast Growth, Example 6.3 ([5]; Concentration 0.01 µg): 2%; Percentage Inhibition of 3T3 Swiss Fibroblast Growth, Example 6.3 ([5]; Concentration 0.1 µg): 37%; effect on degranulation in human polymorphonuclear neutrophils [7]: had an effect
